From patent US9617256B2 (priority 2007, dated 2017)
Values after ≈ are worked out from the molar mass of the structure shown. Where two headings read alike, the source gives them in different places.

Columns and labels:
[1] = tested on: APAE006 (strain of P. aeruginosa in which all efflux pumps are inactivated); assay: microbe, parasite or virus in culture; assay type: cell-based; conditions: Pseudomonas aeruginosa
Procedure: (§1) Bacterial isolates were cultivated from −70° C. frozen stocks by overnight passages at 35° C. in ambient air on Mueller-Hinton agar (Beckton Dickinson, Franklin Lakes, N.J.). Clinical isolates tested were obtained from various geographically diverse hospitals in the US and abroad (Focus Diagnostics, Herndon, Va. and JMI, North Liberty, Iowa). Quality control strains were from the American Type Culture Collection (ATCC; Rockville, Md.). Additional primary panel strains were generated using standard molecular biology techniques.
(§2) Minimum Inhibitory Concentrations (MICs) were determined by the broth microdilution method in accordance with the Clinical and Laboratory Standards Institute (CLSI) guidelines. In brief, organism suspensions were adjusted to a 0.5 McFarland standard to yield a final inoculum between 3×10^5 and 7×10^5 colony-forming units (CFU)/mL. Drug dilutions and inocula were made in sterile, cation adjusted Mueller-Hinton Broth (Beckton Dickinson). An inoculum volume of 100 μL was added to wells containing 100 μL of broth with 2-fold serial dilutions of drug. All inoculated microdilution trays were incubated in ambient air at 35° C. for 18-24 hours. […] Performance of the assay was monitored by the use of laboratory quality-control strains and levofloxacin, a compound with a defined MIC spectrum, in accordance with CLSI guidelines.
(§3) *AECO001 is ATCC25922, AECO063 is ATCC25922 bearing an acrAB mutation, APAE001 is ATCC27853, APAE006 is a strain of P. aeruginosa in which all efflux pumps are inactivated, APAE006+PMBN indicates MICs with the indicated strain in the presence of 8 micrograms per milliliter of polymyxin B nonapeptide, AABA1060 is a clinical isolate of Acinetobacter baumannii, ASAU001 is a laboratory strain of S. aureus (ATCC29213).

APAE001 (ATCC27853) = assay: MIC broth microdilution, APAE001; assay type: cell-based, P. aeruginosa; conditions: Pseudomonas aeruginosa
Procedure: as §1, §2, §3

[2] = tested on: AECO063 (ATCC25922 bearing an acrAB mutation); assay: microbe, parasite or virus in culture; assay type: cell-based, E. coli; conditions: for MIC: Escherichia coli, ATCC25922, read-out: MIC AECO063
Procedure: as §1, §2, §3

AECO001 (ATCC25922) = assay: MIC broth microdilution, AECO001; assay type: cell-based, E. coli; conditions: for MIC: Escherichia coli
Procedure: as §1, §2, §3

[3] = tested on: AABA1060 (clinical isolate of Acinetobacter baumannii); assay: MIC broth microdilution, AABA1060; assay type: cell-based; conditions: for MIC: Acinetobacter baumannii, read-out: MIC AABA1060
Procedure: as §1, §2, §3

[4] = tested on: APAE006 in the presence of 8 micrograms per milliliter of polymyxin B nonapeptide; assay type: cell-based, P. aeruginosa; conditions: APAE006 with 8 micrograms per milliliter polymyxin B nonapeptide
Procedure: as §1, §2, §3

[5] = tested on: ASAU001 (laboratory strain of S. aureus, ATCC29213); assay: MIC broth microdilution, ASAU001; assay type: cell-based; conditions: for MIC: Staphylococcus aureus, ATCC29213, read-out: MIC ASAU001
Procedure: as §1, §2, §3

[6] = read-out: MIC APAE006, APAE006, all efflux pumps inactivated
[7] = ATCC27853, read-out: MIC APAE001, APAE001 (ATCC27853)
[8] = ATCC25922, read-out: MIC AECO001
[9] = ATCC25922, read-out: MIC AECO001 HSA AGP

| Compound | MIC [1, 6] [µg/mL] | MIC (APAE001 (ATCC27853); [7]) [µg/mL] | MIC [2] [µg/mL] | MIC (AECO001 (ATCC25922); [8]) [µg/mL] | MIC (AECO001 (ATCC25922); [9]) [µg/mL] | MIC [3] [µg/mL] | MIC APAE006 + PMBN [4] | MIC [5] [µg/mL] | MIC AECO063 ([2]; AECO063 (ATCC25922 acrAB mutation)) | MIC AECO001 (AECO001 (ATCC25922); AECO001 (ATCC25922)) | MIC AABA1060 ([3]; AABA1060 clinical isolate) | MIC ASAU001 ([5]; ASAU001 (ATCC29213)) | MIC ([1]; read-out: MIC APAE006, P. aeruginosa, all efflux pumps inactivated) [µg/mL] | MIC (APAE001 (ATCC27853); ATCC27853, read-out: MIC APAE001, APAE001 is ATCC27853) [µg/mL] |
| --- | --- | --- | --- | --- | --- | --- | --- | --- | --- | --- | --- | --- | --- | --- |
| C[C@@H](NC(=O)CNC1CC1)[C@H](NC(=O)c1ccc(C#Cc2ccccc2)cc1)C(=O)NO [Example 132-2] | < 2 | 2 to 16 (≈ 4.6 to 36.8 µM) | < 2 | < 2 | 2 to 16 (≈ 4.6 to 36.8 µM) | 16 to 64 (≈ 36.8 to 147 µM) | A (MIC's of 2.0 μg/mL or less = A) | 16 to 64 (≈ 36.8 to 147 µM) |  |  |  |  |  |  |
| CC(C)(O)[C@H](NC(=O)c1ccc(C#Cc2ccc(CNCC(F)F)cc2)cc1)C(=O)NO [Example 119-5] | < 2 | < 2 | < 2 | < 2 | < 2 | < 2 | A (MIC's of 2.0 μg/mL or less = A) | 16 to 64 (≈ 35.9 to 144 µM) |  |  |  |  |  |  |
| C[C@@H](O)[C@H](NC(=O)c1ccc(C#CC#Cc2ccc(C(F)(F)F)cc2)cc1)C(=O)NO [Example 82-22] | 16 to 64 (≈ 37.2 to 149 µM) | 16 to 64 (≈ 37.2 to 149 µM) |  |  | 16 to 64 (≈ 37.2 to 149 µM) |  | A (MIC's of 2.0 μg/mL or less = A) |  | A (MIC's of 2.0 μg/mL or less = A) | A (MIC's of 2.0 μg/mL or less = A) | C (MIC's of greater than 16.0 μg/mL to 64.0 μg/mL = C) | C (MIC's of greater than 16.0 μg/mL to 64.0 μg/mL = C) |  |  |
| C[C@@H](N)[C@H](NC(=O)c1ccc(C#CC#Cc2ccc(CNCC(F)F)cc2)cc1)C(=O)NO [Example 86-1, N-((1S,2R)-2-Amino-1-hydroxycarbamoyl-propyl)-4-(4-{4-[(2,2-difluoro-ethylamino)-methyl]-phenyl}-buta-1,3-diynyl)-benzamide] | < 2 | < 2 | < 2 | < 2 | 2 to 16 (≈ 4.4 to 35.2 µM) | 2 to 16 (≈ 4.4 to 35.2 µM) | A (MIC's of 2.0 μg/mL or less = A) | 16 to 64 (≈ 35.2 to 141 µM) |  |  |  |  |  |  |
| C[C@@H](NCC(=O)N[C@H](C)[C@H](NC(=O)c1ccc(C#Cc2ccccc2)cc1)C(=O)NO)c1ccccc1 [Example 132-6] | < 2 | 16 to 64 (≈ 32.1 to 128 µM) | < 2 | 2 to 16 (≈ 4.01 to 32.1 µM) | 16 to 64 (≈ 32.1 to 128 µM) | 16 to 64 (≈ 32.1 to 128 µM) | A (MIC's of 2.0 μg/mL or less = A) | 16 to 64 (≈ 32.1 to 128 µM) |  |  |  |  |  |  |
| O=C(NC(C(=O)NO)C1(O)CC1)c1ccc(C#CC#CC2CC2)cc1 (stereo not drawn) [Example 94-1, 4-(cyclopropylbuta-1,3-diynyl)-N-(2-(hydroxyamino)-1-(1-hydroxycyclopropyl)-2-oxoethyl)benzamide] | < 2 | < 2 | < 2 | < 2 | 2 to 16 (≈ 5.91 to 47.3 µM) | 2 to 16 (≈ 5.91 to 47.3 µM) | A (MIC's of 2.0 μg/mL or less = A) | 16 to 64 (≈ 47.3 to 189 µM) |  |  |  |  |  |  |
| C[C@@H](O)[C@H](NC(=O)c1ccc(C#C/C=C/C2CC2)cc1)C(=O)NO [Example 107-3] | < 2 | < 2 | < 2 | < 2 | 2 to 16 (≈ 6.09 to 48.7 µM) | 2 to 16 (≈ 6.09 to 48.7 µM) | A (MIC's of 2.0 μg/mL or less = A) | 16 to 64 (≈ 48.7 to 195 µM) |  |  |  |  |  |  |
| CC(C)(N)C(NC(=O)c1ccc(C#CC#CC2CC2)cc1)C(=O)NO (stereo not drawn) [Example 91-10] | < 2 | < 2 | < 2 | < 2 | < 2 | < 2 | A (MIC's of 2.0 μg/mL or less = A) | 16 to 64 (≈ 47.1 to 189 µM) |  |  |  |  |  |  |
| CCOCc1ccc(C#CC#Cc2ccc(C(=O)N[C@H](C(=O)NO)C(C)(C)O)cc2)cc1 [Example 82-21] | < 2 | 2 to 16 (≈ 4.6 to 36.8 µM) | < 2 | < 2 | 2 to 16 (≈ 4.6 to 36.8 µM) | < 2 | A (MIC's of 2.0 μg/mL or less = A) | 16 to 64 (≈ 36.8 to 147 µM) |  |  |  |  |  |  |
| C[C@@H](N)[C@H](NC(=O)c1ccc(/C=C/C#CC2CC2)cc1)C(=O)NO [Example 114-15] | < 2 | < 2 | < 2 | 2 to 16 (≈ 6.11 to 48.9 µM) | 16 to 64 (≈ 48.9 to 195 µM) | 2 to 16 (≈ 6.11 to 48.9 µM) | A (MIC's of 2.0 μg/mL or less = A) | 16 to 64 (≈ 48.9 to 195 µM) |  |  |  |  |  |  |
| O=C(NO)[C@H](COCc1ccccc1)NS(=O)(=O)c1ccc(C#Cc2ccc(CN3CCOCC3)cc2)cc1 [Example 62-5] |  |  |  | 2 to 16 (≈ 3.64 to 29.1 µM) |  |  |  | > 64 |  |  |  |  | 16 to 64 (≈ 29.1 to 116 µM) | > 64 |
